From the supplement of paper PMC10307832

How the values were obtained:
Experiment in all cases: relative viability (nuclei count vs DMSO), 5 days (fraction); higher = more cells survive
[1] = test system: NCI-H441
In short: (§1)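 Values are medians from duplicate plates. Each reflects relative viability, defined as the nuclei count of treated wells over that of vehicle wells. Lung cancer cell lines in 1536-well plates were pin-tool dosed one day after seeding with one drug alone or with a fixed anchor-drug dose plus five library-drug doses (not always all listed) in √10 steps, then fixed, stained and imaged at 4× after 5 days.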

[2] = test system: NCI-H2405
In short: as §1

[3] = test system: NCI-H1437
In short: as §1

[4] = test system: NCI-H2087
In short: as §1

[5] = test system: ChaGo-K-1
In short: as §1

[6] = test system: NCI-H2347
In short: as §1

[7] = test system: NCI-H3122
In short: as §1

[8] = test system: NCI-H520
In short: as §1

[9] = test system: NCI-H23
In short: as §1

[10] = test system: NCI-H2009
In short: as §1

[11] = test system: EKVX
In short: as §1

[12] = test system: NCI-H322M
In short: as §1

[13] = test system: NCI-H1755
In short: as §1

[14] = test system: BEN
In short: as §1

[15] = test system: NCI-H1666
In short: as §1

[16] = test system: NCI-H2126
In short: as §1

[17] = test system: H3255
In short: as §1

[18] = test system: SK-LU-1
In short: as §1

[19] = test system: A-427
In short: as §1

[20] = test system: UMC-11
In short: as §1

[21] = test system: NCI-H1650
In short: as §1

[22] = test system: NCI-H727
In short: as §1

With C=C1C(=O)O[C@@H](CCCCCCCC)[C@@H]1C(=O)O [C-75] + CC1(C)CCC(c2ccc(Cl)cc2)=C(CN2CCN(c3ccc(C(=O)NS(=O)(=O)c4ccc(N[C@H](CCN5CCOCC5)CSc5ccccc5)c(S(=O)(=O)C(F)(F)F)c4)cc3)CC2)C1 [Navitoclax] (partner 0.5 µM) the relative viability ([1]; first compound 0.08 µM) was 0.566, the relative viability ([1]; first compound 0.253 µM) was 0.618 and the relative viability ([1]; first compound 0.8 µM) was 0.599. It also gave a relative viability ([1]; first compound 2.53 µM) of 0.401, a relative viability ([1]; first compound 8 µM) of 0.488 and a relative viability ([2]; first compound 0.08 µM) of 0.93. The relative viability ([2]; first compound 0.253 µM) was 0.633, the relative viability ([2]; first compound 0.8 µM) was 0.863 and the relative viability ([2]; first compound 2.53 µM) was 0.83. The relative viability ([2]; first compound 8 µM) was 0.802, the relative viability ([3]; first compound 0.08 µM) was 1.06 and the relative viability ([3]; first compound 0.253 µM) was 1.13. For the same molecule, the relative viability ([3]; first compound 0.8 µM) was 1.09, the relative viability ([3]; first compound 2.53 µM) was 1.09 and the relative viability ([3]; first compound 8 µM) was 1.08. For the same molecule, the relative viability ([4]; first compound 0.08 µM) was 1.02, the relative viability ([4]; first compound 0.253 µM) was 1.05 and the relative viability ([4]; first compound 0.8 µM) was 0.934. It also gave a relative viability ([4]; first compound 2.53 µM) of 0.927, a relative viability ([4]; first compound 8 µM) of 0.87 and a relative viability ([5]; first compound 0.08 µM) of 0.971. The relative viability ([5]; first compound 0.253 µM) was 0.953, the relative viability ([5]; first compound 0.8 µM) was 0.833 and the relative viability ([5]; first compound 2.53 µM) was 0.747. The relative viability ([5]; first compound 8 µM) was 0.956, the relative viability ([6]; first compound 0.08 µM) was 0.688 and the relative viability ([6]; first compound 0.253 µM) was 1.03. It also gave a relative viability ([6]; first compound 0.8 µM) of 0.755, a relative viability ([6]; first compound 2.53 µM) of 0.758 and a relative viability ([6]; first compound 8 µM) of 0.714. It also gave a relative viability ([7]; first compound 0.08 µM) of 0.973, a relative viability ([7]; first compound 0.253 µM) of 1.05 and a relative viability ([7]; first compound 0.8 µM) of 0.986. For the same molecule, the relative viability ([7]; first compound 8 µM) was 1.09, the relative viability ([8]; first compound 0.08 µM) was 1.13 and the relative viability ([8]; first compound 0.253 µM) was 1.24. The relative viability ([8]; first compound 0.8 µM) was 1, the relative viability ([8]; first compound 2.53 µM) was 0.837 and the relative viability ([8]; first compound 8 µM) was 0.82. It also gave a relative viability ([9]; first compound 0.08 µM) of 0.801, a relative viability ([9]; first compound 0.253 µM) of 1.01 and a relative viability ([9]; first compound 0.8 µM) of 0.666. The relative viability ([9]; first compound 2.53 µM) was 0.672, the relative viability ([9]; first compound 8 µM) was 0.717 and the relative viability ([10]; first compound 0.08 µM) was 1.16. For the same molecule, the relative viability ([10]; first compound 0.253 µM) was 1.08, the relative viability ([10]; first compound 0.8 µM) was 1.1 and the relative viability ([10]; first compound 2.53 µM) was 0.971. For the same molecule, the relative viability ([10]; first compound 8 µM) was 0.946, the relative viability ([11]; first compound 0.08 µM) was 0.944 and the relative viability ([11]; first compound 0.253 µM) was 0.893. The relative viability ([11]; first compound 0.8 µM) was 0.831, the relative viability ([11]; first compound 2.53 µM) was 0.864 and the relative viability ([11]; first compound 8 µM) was 1.03. It also gave a relative viability ([12]; first compound 0.08 µM) of 1.18, a relative viability ([12]; first compound 0.253 µM) of 1.54 and a relative viability ([12]; first compound 0.8 µM) of 1.28. For the same molecule, the relative viability ([12]; first compound 2.53 µM) was 1.12, the relative viability ([12]; first compound 8 µM) was 1.29 and the relative viability ([13]; first compound 0.08 µM) was 0.945. For the same molecule, the relative viability ([13]; first compound 0.253 µM) was 0.935, the relative viability ([13]; first compound 0.8 µM) was 1.02 and the relative viability ([13]; first compound 2.53 µM) was 0.711. The relative viability ([13]; first compound 8 µM) was 0.957, the relative viability ([14]; first compound 0.08 µM) was 0.0695 and the relative viability ([14]; first compound 0.253 µM) was 0.0673. It also gave a relative viability ([14]; first compound 0.8 µM) of 0.0656, a relative viability ([14]; first compound 2.53 µM) of 0.0589 and a relative viability ([14]; first compound 8 µM) of 0.0596. It also gave a relative viability ([15]; first compound 0.08 µM) of 0.94, a relative viability ([15]; first compound 0.253 µM) of 1.19 and a relative viability ([15]; first compound 0.8 µM) of 0.742. For the same molecule, the relative viability ([15]; first compound 2.53 µM) was 0.891, the relative viability ([15]; first compound 8 µM) was 0.567 and the relative viability ([16]; first compound 0.08 µM) was 0.869. For the same molecule, the relative viability ([16]; first compound 0.253 µM) was 0.902, the relative viability ([16]; first compound 0.8 µM) was 0.871 and the relative viability ([16]; first compound 2.53 µM) was 0.718. It also gave a relative viability ([16]; first compound 8 µM) of 0.818, a relative viability ([17]; first compound 0.08 µM) of 0.565 and a relative viability ([17]; first compound 0.253 µM) of 0.5. The relative viability ([17]; first compound 0.8 µM) was 0.513, the relative viability ([17]; first compound 2.53 µM) was 0.466 and the relative viability ([17]; first compound 8 µM) was 0.577. It also gave a relative viability ([18]; first compound 0.08 µM) of 0.932, a relative viability ([18]; first compound 0.253 µM) of 0.85 and a relative viability ([18]; first compound 0.8 µM) of 0.763. For the same molecule, the relative viability ([18]; first compound 2.53 µM) was 0.709, the relative viability ([18]; first compound 8 µM) was 0.751 and the relative viability ([19]; first compound 0.08 µM) was 0.935. It also gave a relative viability ([19]; first compound 0.253 µM) of 1.04, a relative viability ([19]; first compound 0.8 µM) of 0.915 and a relative viability ([19]; first compound 2.53 µM) of 0.903. It also gave a relative viability ([19]; first compound 8 µM) of 0.93, a relative viability ([20]; first compound 0.08 µM) of 0.3 and a relative viability ([20]; first compound 0.253 µM) of 0.299. The relative viability ([20]; first compound 0.8 µM) was 0.292, the relative viability ([20]; first compound 2.53 µM) was 0.287 and the relative viability ([20]; first compound 8 µM) was 0.239. The relative viability ([21]; first compound 0.08 µM) was 1.22, the relative viability ([21]; first compound 0.253 µM) was 1.36 and the relative viability ([21]; first compound 0.8 µM) was 1.22. The relative viability ([21]; first compound 2.53 µM) was 1.36, the relative viability ([21]; first compound 8 µM) was 0.97 and the relative viability ([22]; first compound 0.08 µM) was 0.464. The relative viability ([22]; first compound 0.253 µM) was 0.62, the relative viability ([22]; first compound 0.8 µM) was 0.436 and the relative viability ([22]; first compound 2.53 µM) was 0.377. The relative viability ([22]; first compound 8 µM) was 0.319.
